As a reminder, the AUC(0-inf) is total exposure, with the tail of the curve extrapolated. In general, Tmax refers to the time from dosing to the highest level. In general, Cmax refers to the peak of the concentration-time curve. As a reminder, the half-life is the time in which the quantity being followed falls by half. By bioavailability is commonly meant dose-corrected exposure relative to a reference, in per cent. One may read the IC50 as the concentration at which inhibition is half-maximal. Broadly, the AUC is the area under the concentration-time curve, a measure of exposure. Usually clearance stands for a measure of how efficiently the substance is removed, as volume per time.

Data on two compounds can be found in ChEMBL document CHEMBL4364319 (Eur J Med Chem, 2019).

Data set [1] can be described thus: Stability in Sprague-Dawley rat plasma assessed as compound remaining at 1 uM measured up to 120 mins by LC-MS/MS analysis relative to control. The class given is ADME, cell-free. The settings on record: read-out: Stability.
Data set [2] is described as follows: AUC (0 to infinity) in Sprague-Dawley rat at 5 mg/kg, iv measured after 48 hrs by LC-MS/MS analysis. The class given is ADME, organism-based. Details: dose 5 mg/kg, route intravenous, time infinity. As to conditions: in vivo.
Data set [3] concerns Mus musculus. In words: Anti-diabetic activity in 12 hrs-fasted ICR mouse assessed as reduction in blood glucose AUC (0 to 120 mins)at 10 mg/kg, po pretreated for 60 mins followed by glucose challenge and measured after 120 mins post glucose challenge by OGTT relative to control. The class given is functional. Also on record: scale not given: the % may be the effect or the level left.

Data set [4] in a line: Tmax in Sprague-Dawley rat at 10 mg/kg, po via gavage after 48 hrs by LC-MS/MS analysis. As to conditions: in vivo. It counts as ADME, organism-based.
A short description of data set [5]: Cmax in Sprague-Dawley rat at 5 mg/kg, iv measured after 48 hrs by LC-MS/MS analysis. It counts as ADME, organism-based. Details: dose 5 mg/kg, route intravenous. As to conditions: in vivo.
A short description of data set [6]: Half life in Sprague-Dawley rat at 5 mg/kg, iv measured after 48 hrs by LC-MS/MS analysis. As to conditions: in vivo. It counts as ADME, organism-based.
Data set [7] can be described thus: Half life in Sprague-Dawley rat at 10 mg/kg, po via gavage after 48 hrs by LC-MS/MS analysis. The settings on record: in vivo. The class given is ADME, organism-based.
Data set [8] in a line: Cmax in Sprague-Dawley rat at 10 mg/kg, po via gavage after 48 hrs by LC-MS/MS analysis. It counts as ADME, organism-based. Details: dose 10 mg/kg, route oral. The settings on record: in vivo.
Data set [9] is described as follows: Oral bioavailability in Sprague-Dawley rat at 10 mg/kg via gavage after 48 hrs by LC-MS/MS analysis. It counts as ADME, organism-based. As to conditions: in vivo.
Data set [10] is described as follows: Cytotoxicity against human LO2 cells assessed as cell viability at 50 uM after 48 hrs by MTT assay. The class given is cell-based, L02. The settings on record: read-out: Activity. For orientation: Tetrazolium assays rely on reduction of a dye to a coloured formazan, in cell work by metabolically active cells.
A further data set has as its target Dipeptidyl peptidase 9 (Homo sapiens, UniProt Q86TI2). In words: Inhibition of DPP9 (unknown origin) using Gly-Pro-AMC as substrate preincubated for 15 mins followed by substrate addition measured at 60 secs interval for 20 mins by fluorometic method.
Data set [11] can be described thus: AUC (0 to infinity) in Sprague-Dawley rat at 10 mg/kg, po via gavage after 48 hrs by LC-MS/MS analysis. Also on record: dose 10 mg/kg, route oral, time infinity. As to conditions: in vivo. It counts as ADME, organism-based.
Data set [12] is described as follows: Clearance in Sprague-Dawley rat at 5 mg/kg, iv measured after 48 hrs by LC-MS/MS analysis. The class given is ADME, organism-based. As to conditions: in vivo.
The species named for data set [13] is Rattus norvegicus. In words: animal or person. The settings on record: Sprague-Dawley, po, 2 h, read-out: INH.
Description: Anti-diabetic activity in Sprague-Dawley rat assessed as redcution in DPP4 inhibition in plasma at 10 mg/kg, po via gavage administered as single dose measured at 2 hrs post dose by fluorometric assay relative to control
A short description of data set [14]: Stability in PBS at pH 7.4 assessed as compound remaining at 1 uM after 120 mins by LC-MS/MS analysis relative to control. The settings on record: read-out: Stability. The class given is physicochemical.
Another data set deals with Dipeptidyl peptidase 8 (Homo sapiens, UniProt Q6V1X1). In words: Inhibition of DPP8 (unknown origin) using Gly-Pro-AMC as substrate preincubated for 15 mins followed by substrate addition measured at 60 secs interval for 20 mins by fluorometic method.
Sequence of Dipeptidyl peptidase 8 (Q6V1X1 whole entry): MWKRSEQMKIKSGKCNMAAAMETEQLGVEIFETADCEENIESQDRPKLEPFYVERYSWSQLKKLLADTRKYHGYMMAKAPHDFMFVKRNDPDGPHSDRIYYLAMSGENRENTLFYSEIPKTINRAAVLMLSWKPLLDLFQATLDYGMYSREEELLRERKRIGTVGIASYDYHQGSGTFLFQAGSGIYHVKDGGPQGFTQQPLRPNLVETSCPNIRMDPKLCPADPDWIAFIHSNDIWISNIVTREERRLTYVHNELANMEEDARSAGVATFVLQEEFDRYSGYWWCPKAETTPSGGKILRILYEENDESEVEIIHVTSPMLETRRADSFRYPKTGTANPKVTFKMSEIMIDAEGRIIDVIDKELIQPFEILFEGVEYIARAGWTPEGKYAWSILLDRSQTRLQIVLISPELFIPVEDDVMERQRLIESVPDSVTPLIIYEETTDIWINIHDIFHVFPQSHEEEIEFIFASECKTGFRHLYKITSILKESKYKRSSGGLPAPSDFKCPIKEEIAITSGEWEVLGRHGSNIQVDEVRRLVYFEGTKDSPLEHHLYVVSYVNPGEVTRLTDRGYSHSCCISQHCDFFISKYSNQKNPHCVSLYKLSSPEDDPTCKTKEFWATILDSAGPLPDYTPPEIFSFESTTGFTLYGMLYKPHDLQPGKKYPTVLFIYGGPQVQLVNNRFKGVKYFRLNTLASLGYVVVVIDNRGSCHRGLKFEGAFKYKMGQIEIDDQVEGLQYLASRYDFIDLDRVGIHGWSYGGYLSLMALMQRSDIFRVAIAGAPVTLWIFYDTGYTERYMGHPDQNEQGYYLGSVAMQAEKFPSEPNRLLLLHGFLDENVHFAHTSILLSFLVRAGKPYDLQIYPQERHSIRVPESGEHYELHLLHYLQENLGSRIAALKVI
Data set [15] is described as follows: Clearance in Sprague-Dawley rat at 10 mg/kg, po via gavage after 48 hrs by LC-MS/MS analysis. It counts as ADME, organism-based. As to conditions: in vivo.
Data set [16] is filed under the species Rattus norvegicus. In words: animal or person. As to conditions: Sprague-Dawley, po, 24 h, read-out: INH.
The subject of data set [17] is Mus musculus. In words: Anti-diabetic activity in 8 hrs-fasted C57BL/6 db/db mouse assessed as reduction in blood glucose AUC (0 to 120 mins) at 1 mg/kg, po pretreated for 60 mins followed by glucose challenge and measured after 120 mins post glucose challenge by OGTT relative to control. It counts as functional. Also on record: scale not given: the % may be the effect or the level left.

The subject of data set [18] is Mus musculus. In words: Anti-diabetic activity in db/db mouse assessed as reduction in blood glucose AUC (0 to 120 mins) at 3 mg/kg, po dosed once daily for 3 weeks following 12 hrs fasting and glucose challenge measured up to 120 mins relative to control. It counts as functional. Details: scale not given: the % may be the effect or the level left.
The test system of data set [19] is Mus musculus. In words: Anti-diabetic activity in db/db mouse assessed as reduction in fasting blood glucose leave at 10 mg/kg, po dosed once daily for 3 weeks measured for every 7 days. It counts as functional, organism-based.
A short description of data set [20]: Oral bioavailability in Sprague-Dawley rat assessed as (R)-2-((8-(3-aminopiperidin-1-yl)-7-(but-2-yn-1-yl)-3-methyl-2,6-dioxo-2,3,6,7-tetrahydro-1H-purin-1-yl)methyl)-5-chlorobenzoic acid level at 10 mg/kg via gavage after 48 hrs by LC-MS/MS analysis. The class given is ADME, organism-based. As to conditions: in vivo.
Data set [21] deals with Mus musculus. In words: Anti-diabetic activity in po dosed 8 hrs-fasted C57BL/6 db/db mouse assessed as increase in glucose tolerance pretreated for 60 mins followed by glucose challenge and measured after 120 mins post glucose challenge by OGTT. The class given is functional, organism-based.
Data set [22] in a line: Cmax in Sprague-Dawley rat assessed as (R)-2-((8-(3-aminopiperidin-1-yl)-7-(but-2-yn-1-yl)-3-methyl-2,6-dioxo-2,3,6,7-tetrahydro-1H-purin-1-yl)methyl)-5-chlorobenzoic acid level at 10 mg/kg, po via gavage after 48 hrs by LC-MS/MS analysis. The settings on record: in vivo. Also on record: dose 10 mg/kg, route oral. The class given is ADME, organism-based.
The test system of data set [23] is Mus musculus. In words: Anti-diabetic activity in db/db mouse assessed as reduction in fasting blood glucose leave at 3 mg/kg, po dosed once daily for 3 weeks measured for every 7 days. The class given is functional, organism-based.
A short description of data set [24]: Clearance in Sprague-Dawley rat assessed as (R)-2-((8-(3-aminopiperidin-1-yl)-7-(but-2-yn-1-yl)-3-methyl-2,6-dioxo-2,3,6,7-tetrahydro-1H-purin-1-yl)methyl)-5-chlorobenzoic acid level at 10 mg/kg, po via gavage after 48 hrs by LC-MS/MS analysis. It counts as ADME, organism-based. The settings on record: in vivo.
The test system of data set [25] is Mus musculus. In words: Anti-diabetic activity in 8 hrs-fasted C57BL/6 db/db mouse assessed as reduction in blood glucose AUC (0 to 120 mins) at 3 mg/kg, po pretreated for 60 mins followed by glucose challenge and measured after 120 mins post glucose challenge by OGTT relative to control. The class given is functional. Details: scale not given: the % may be the effect or the level left.

A short description of data set [26]: Cytotoxicity against human LO2 cells assessed as cell viability at 20 uM after 48 hrs by MTT assay. The class given is cell-based, L02. As to conditions: read-out: Activity.
The nature of data set [27]: Half life in Sprague-Dawley rat assessed as (R)-2-((8-(3-aminopiperidin-1-yl)-7-(but-2-yn-1-yl)-3-methyl-2,6-dioxo-2,3,6,7-tetrahydro-1H-purin-1-yl)methyl)-5-chlorobenzoic acid level at 10 mg/kg, po via gavage after 48 hrs by LC-MS/MS analysis. It counts as ADME, organism-based. As to conditions: in vivo.
Data set [28] relates to Mus musculus. In words: Anti-diabetic activity in db/db mouse assessed as increase in glucose tolerance at 10 mg/kg, po dosed once daily for 3 weeks following 12 hrs fasting and glucose challenge measured up to 120 mins. The class given is functional, organism-based.
Data set [29] is described as follows: AUC (0 to infinity) in Sprague-Dawley rat assessed as (R)-2-((8-(3-aminopiperidin-1-yl)-7-(but-2-yn-1-yl)-3-methyl-2,6-dioxo-2,3,6,7-tetrahydro-1H-purin-1-yl)methyl)-5-chlorobenzoic acid level at 10 mg/kg, po via gavage after 48 hrs by LC-MS/MS analysis. It counts as ADME, organism-based. Also on record: dose 10 mg/kg, route oral, time infinity. As to conditions: in vivo.

Data set [30] is described as follows: Tmax in Sprague-Dawley rat assessed as (R)-2-((8-(3-aminopiperidin-1-yl)-7-(but-2-yn-1-yl)-3-methyl-2,6-dioxo-2,3,6,7-tetrahydro-1H-purin-1-yl)methyl)-5-chlorobenzoic acid level at 10 mg/kg, po via gavage after 48 hrs by LC-MS/MS analysis. The class given is ADME, organism-based. The settings on record: in vivo.
The test system of data set [31] is Mus musculus. In words: Anti-diabetic activity in db/db mouse assessed as reduction in blood glucose AUC (0 to 120 mins) at 10 mg/kg, po dosed once daily for 3 weeks following 12 hrs fasting and glucose challenge measured up to 120 mins relative to control. It counts as functional. Also on record: scale not given: the % may be the effect or the level left.
The species entered for data set [32] is Rattus norvegicus. In words: animal or person. As to conditions: Sprague-Dawley, po, 12 h, read-out: INH.
Data set [33] deals with Mus musculus. In words: Anti-diabetic activity in 8 hrs-fasted C57BL/6 db/db mouse assessed as reduction in blood glucose AUC (0 to 120 mins) at 10 mg/kg, po pretreated for 60 mins followed by glucose challenge and measured after 120 mins post glucose challenge by OGTT relative to control. The class given is functional. Details: scale not given: the % may be the effect or the level left.

Data set [34] is described as follows: Toxicity in db/db mouse assessed as increase in body weight at 3 to 10 mg/kg, po dosed once daily for 3 weeks and measured every day. The class given is organism-based. As to conditions: in vivo, 504 h.

Active and inactive are the calls of the source. No cut-off for these calls is given here.

Sequence of Dipeptidyl peptidase 9 (Q86TI2 whole entry): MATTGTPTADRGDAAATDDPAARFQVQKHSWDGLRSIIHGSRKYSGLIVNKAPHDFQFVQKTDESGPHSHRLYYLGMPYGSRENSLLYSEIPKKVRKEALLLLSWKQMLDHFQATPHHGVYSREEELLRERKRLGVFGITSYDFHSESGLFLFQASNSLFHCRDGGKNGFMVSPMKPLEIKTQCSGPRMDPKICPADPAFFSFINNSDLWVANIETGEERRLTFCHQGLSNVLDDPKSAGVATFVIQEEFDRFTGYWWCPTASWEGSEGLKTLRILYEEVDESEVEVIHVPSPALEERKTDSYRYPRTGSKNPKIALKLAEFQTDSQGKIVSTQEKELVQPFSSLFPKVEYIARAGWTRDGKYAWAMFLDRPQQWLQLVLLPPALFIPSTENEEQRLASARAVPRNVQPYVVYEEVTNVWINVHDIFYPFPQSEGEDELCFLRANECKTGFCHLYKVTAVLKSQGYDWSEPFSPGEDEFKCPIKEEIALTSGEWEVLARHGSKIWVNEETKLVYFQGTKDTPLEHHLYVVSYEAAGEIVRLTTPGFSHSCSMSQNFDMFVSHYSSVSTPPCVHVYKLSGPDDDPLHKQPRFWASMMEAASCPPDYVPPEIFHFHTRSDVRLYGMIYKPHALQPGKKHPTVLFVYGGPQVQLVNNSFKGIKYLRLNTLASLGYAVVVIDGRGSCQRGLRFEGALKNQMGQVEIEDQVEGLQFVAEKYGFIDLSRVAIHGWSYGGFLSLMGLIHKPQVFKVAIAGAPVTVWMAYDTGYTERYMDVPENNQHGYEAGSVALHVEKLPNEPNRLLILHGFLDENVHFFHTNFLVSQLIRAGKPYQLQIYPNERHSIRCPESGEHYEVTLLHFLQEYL

`CC#CCn1c(N2CCC[C@@H](N)C2)nc2c1c(=O)n(Cc1ccc(Cl)cc1C(=O)O)c(=O)n2C`: the values for the remaining at 2 h, 1 µM in [1] and in data set [14] were 102% and 101%, respectively. Moreover, the AUC(0-inf) in data set [2] amounted to 9620 ng·h/mL. Further, the Activity in the data set on Mus musculus [3] was found to be 14.3%. In data set [4], the Tmax was 10.2 min. Moreover, the Cmax in data set [5] is 30600 ng/mL; in data set [8], 2340 ng/mL. The half-life is 314 min in data set [6] and 106 min in data set [7]. In data set [9], this compound came in with a bioavailability of 6.76%. The viability at 48 h, 50 µM in [10] was above 90%. Besides, the concentration for half-maximal inhibition (IC50) against Dipeptidyl peptidase 9 and against Dipeptidyl peptidase 8 was above 100 µM in each case. The compound also yielded an area under the curve (AUC) in data set [11] of 1.30187 µg·h/mL. The clearance in data set [12] was 8.83 mL/min/kg. For the same compound, the inhibition in vivo at 10 mg/kg in the data set filed under Rattus norvegicus [13] is above 80%. The compound further registered a CL in data set [15] of 0.82 L/h/kg.

On to `CC#CCn1c(N2CCC[C@@H](N)C2)nc2c1c(=O)n(Cc1ccc(Cl)cc1C(=O)OC)c(=O)n2C`, for which the figures for the remaining at 2 h, 1 µM in [1] and in [14] were 65.2% and 101%, respectively. Also, the inhibition in vivo at 10 mg/kg in the data set filed under Rattus norvegicus [16] came to 60%; in the data set listed under Rattus norvegicus [32], 85%. Besides, the Activity in the data set with Mus musculus [3] was 17.43%; with Mus musculus [17] it was 26.4%; in the data set on Mus musculus [18] it was 6%; in the data set on Mus musculus [21] it was “Dose-dependent effect”; with Mus musculus [25], 28.8%; in the data set on Mus musculus [31], 13.2%. Also, the Activity is on record as 54.7% with Mus musculus [33] and “Non-Toxic” in data set [34]. Besides, the Tmax in data set [4] stood at 60 min; in data set [30], 1 h. The outcome with Mus musculus [19], in the data set on Mus musculus [23] and in the data set on Mus musculus [28] was Active. Further, in [20], the F was found to be 19.46%. Further, the Cmax turned out to be 693.32 µg/L in data set [22] and 1180 ng/mL in [8]. In addition, the figures for the CL in data set [24] and in data set [15] were 0.27 L/h/kg and 0.16 L/h/kg, respectively. The compound further had a half-life in data set [7] of 605 min. Also, the viability at 48 h, 20 µM in data set [26] stood at 90%. Moreover, the t1/2 in data set [27] was determined as 11.81 h. For the same compound, the AUC in data set [29] worked out at 3.74605 µg·h/mL; in [11], 6.1073 µg·h/mL. In addition, the IC50 against Dipeptidyl peptidase 9 and against Dipeptidyl peptidase 8 was above 100 µM in each case.
